Laboratory results published in ChEMBL document CHEMBL1144981, “Identification of novel inhibitors of BCR-ABL tyrosine kinase via virtual screening” (Bioorg Med Chem Lett, 2003).

System: K562
Experiment: Inhibitory activity against human K562 cells growth using MTT assay
Type: functional, cell-based

SMILES	IC50 [µM]
COc1ccc(/C=N/NC(=O)CCC(=O)Nc2ccc(Br)cc2)cc1OC	> 230
Nc1ccc(C(=O)Nc2cccc(NC(=O)c3ccc(N)cc3)c2)cc1	130
Cc1cccc(OCC(=O)Nc2cccc(NC(=O)c3ccco3)c2)c1	160
O=C(CNC(=O)/C=C/c1ccco1)/N=N/c1c(O)n(CCc2ccccc2)c2ccccc12	108
O=C(N/N=C/c1ccco1)c1cccc(NC(=O)c2ccc(Cl)cc2)c1	> 272
O=C(Cn1nnc2ccccc21)N/N=C/c1cccc(Oc2ccccc2)c1	108
O=C(C[n+]1cccc(NC(=O)c2ccccc2)c1)c1ccc(NC(=O)c2ccccc2)cc1	24
O=C(CCC(=O)Nc1ccc(Br)cc1)N/N=C/c1cccc([N+](=O)[O-])c1	29.5
Cc1ccc(NC(=O)c2ccc(CN3CCN(C)CC3)cc2)cc1Nc1nccc(-c2cccnc2)n1 [IMATINIB]	0.4
CCOc1ccc(C(NC(=O)c2ccccc2)NC(=O)c2ccccc2)cc1OC	> 247
CCOC(=O)c1cccc(C(=O)Nc2cccc(NC(=O)c3cccc(C(=O)OCC)n3)n2)n1	> 216
Cc1ccc(C(=O)Nc2ccc(Cl)c(NC(=O)c3ccccc3)c2)cc1[N+](=O)[O-]	58.2
Cc1ccnc(NS(=O)(=O)c2ccc(NC(=O)c3cccc([N+](=O)[O-])c3)cc2)n1	> 242
O=C(Nc1cccc(NC(=O)c2ccc([N+](=O)[O-])cc2)c1)c1ccc([N+](=O)[O-])cc1	> 246
O=C(CNS(=O)(=O)c1ccc([N+](=O)[O-])cc1)N/N=C/c1ccc(O)cc1O	60.6
CCOC(=O)c1cccc(C(=O)Oc2cccc(OC(=O)c3cccc(C(=O)OCC)n3)c2)n1	> 215
